Here are results for 22 compounds from patent publication US9944618B2, “Inhibiting neurotransmitter reuptake” (Mayo Foundation for Medical Education and Research, priority 2013, dated 2018).

The nature of series [1]: pKa of basic centres (Table 1). Format: physicochemical.
In series [2] the target is human dopamine transporter (Homo sapiens (Human), UniProt Q01959). Kind of series: Human DAT (dopamine transporter) uptake assay. It counts as cell-based. To be noted: read-out: hDAT Ki. The protocol: This protocol was designed to measure inhibition of uptake by the human dopamine transporter. […] The Assay Buffer (AB) was 1×HBSS and 0.02 M HEPES.
(§1) The HEK293F cells were transfected with the human dopamine transporter and frozen in 1 mL aliquots at about 1E+07 cells/mL. On the day of the experiment, the cells were removed from −80° C. or liquid nitrogen and thawed in a room temperature water bath. The cells were dilute to about 1-2E+06 with Freestyle medium. A 1 mL sample (1:2 dilution) was prepared, and the cells were counted. The cells were spun at 1100 rpm for 5 minutes, and the medium was aspirated off. The cells were resuspend in medium at 1.5E+06 cells/mL for about 60,000 cells per well. 40 μL of cells were dispensed per well in the Biocoat plates. The plates were spun at 1100 rpm for 1 minute to improve homogeneity of the cell layer and were incubated at 37° C. for a minimum of 3 hours.
12 μL of test compound (10 mM) in DMSO was added to the wells, and nomifensine was used as a control. […] The neurotransmitter transporter dye was prepared in AB prior to use.
Due to the proprietary nature of the dye formulation, all dye concentrations were expressed as a percentage of the vendor-recommended dye reconstitution. Thus, the above calculations were valid when both [dye] and K1 were expressed in the same units (%). Compounds were tested in triplicate (n=3).

Series [3] concerns the target human serotonin transporter (Homo sapiens (Human), UniProt P31645). As to the kind of experiment: Human SERT (serotonin transporter) uptake assay. Format: cell-based. The following applies: read-out: hSERT Ki. On the procedure: This protocol was designed to measure inhibition of uptake by the human serotonin transporter. […] The Assay Buffer (AB) was […] and 0.02 M HEPES.
as §1, with “serotonin” for “dopamine”
12 μL of test compound (10 mM) in DMSO was added to the wells, and nomifensine was used as a control. Fluoxetine (final assay concentration of 10 μM) was used for background signal. The neurotransmitter transporter dye was prepared in AB prior to use.
Due to the proprietary nature of the dye formulation, all dye concentrations were expressed as a percentage of the vendor-recommended dye reconstitution. Thus, the above calculations were valid when both [dye] and Km were expressed in the same units (%). Compounds were tested in triplicate (n=3).

Series [4] concerns the target human norepinephrine transporter (Homo sapiens (Human), UniProt P23975). As to the kind of experiment: Human NET (norepinephrine transporter) uptake assay. Format: cell-based. The following applies: read-out: hNET Ki. The method in brief:
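HEK293F cells transfected with human NET were thawed, plated at about 60,000 cells/well and held at 37 °C for at least 3 h. Compounds came from 10 mM DMSO stocks, with nomifensine as control, in 1×HBSS/0.02 M HEPES. Uptake was followed with a neurotransmitter transporter dye, dosed as % of vendor reconstitution, in triplicate.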

In series [5] the target is CYP2D6 (Homo sapiens (Human), UniProt P10635). As to the kind of experiment: Cytochrome P450 inhibition assay, recombinant CYP2D6 (MAMC substrate). It counts as in vitro ADME. To be noted: recombinant enzyme.
Series [6] addresses CYP3A4 (Homo sapiens (Human), UniProt P08684). Kind of series: Cytochrome P450 inhibition assay, recombinant CYP3A4 (BFC substrate). To be noted: recombinant enzyme. Format: in vitro ADME.
Method: Recombinant enzymes, 3A4 and 2D6, generated using the ABL yeast expression system were used. […] The assay mixture also included K2HPO4 (pH 7.4; conc. 0.1 M) and NADPH (conc. 1 mM). The incubation time was 30 minutes, and the reference inhibitor was A-naphthoflavone. For CYP2D6, the enzyme amount was 2 pmol per well, and the substrate (7-methoxy-4-(aminomethyl)-coumarin; MAMC) was used at 20 μM. The assay mixture also included K2HPO4 (pH 7.4; conc. 0.1 M) and NADPH (conc. 0.06 mM). The incubation time was 35 minutes, and the reference inhibitor was quinidine.
Briefly, 0.6 μL of serially diluted compound was added to 75 μL water. 10 μL of diluted compound in water was then added to each assay plate. 20 μL of a K2HPO4, enzyme, and substrate mixture was added. After 10 minutes of room temperature pre-incubation, 10 μL of NADPH was added, and the plates were placed at 37° C. for 30 or 35 minutes depending on the enzyme being tested. After the incubation was complete, 20 μL of 0.1% Tris/ACN was added to the plate. The plate was read on a FluorStar fluorescence plate reader.
Where [7] appears, read: first base, e.g., an aliphatic primary, secondary, or tertiary amine, read-out: pKa (Base 1).
[8] abbreviates: second base in the same molecule (if present), read-out: pKa (Base 2).

Molecules are shown by their SMILES. Read-outs that look alike come from different tables or passages of the source. Where only a bound is given, the exact number is not on record here.

Sequence of CYP3A4 (P08684 whole entry): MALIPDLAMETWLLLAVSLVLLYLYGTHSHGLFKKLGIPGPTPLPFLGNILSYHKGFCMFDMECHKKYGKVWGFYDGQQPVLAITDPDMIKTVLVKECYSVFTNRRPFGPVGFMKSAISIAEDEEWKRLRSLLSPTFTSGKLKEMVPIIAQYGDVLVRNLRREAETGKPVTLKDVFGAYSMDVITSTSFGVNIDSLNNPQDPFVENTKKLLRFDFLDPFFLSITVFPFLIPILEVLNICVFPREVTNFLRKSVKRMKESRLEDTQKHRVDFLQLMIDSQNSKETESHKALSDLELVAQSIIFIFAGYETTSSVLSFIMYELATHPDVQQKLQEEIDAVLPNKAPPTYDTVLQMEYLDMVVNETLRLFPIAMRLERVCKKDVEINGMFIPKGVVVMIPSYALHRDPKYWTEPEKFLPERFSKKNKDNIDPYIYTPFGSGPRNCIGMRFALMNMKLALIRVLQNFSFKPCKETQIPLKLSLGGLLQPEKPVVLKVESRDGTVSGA
Sequence of CYP2D6 (P10635 whole entry): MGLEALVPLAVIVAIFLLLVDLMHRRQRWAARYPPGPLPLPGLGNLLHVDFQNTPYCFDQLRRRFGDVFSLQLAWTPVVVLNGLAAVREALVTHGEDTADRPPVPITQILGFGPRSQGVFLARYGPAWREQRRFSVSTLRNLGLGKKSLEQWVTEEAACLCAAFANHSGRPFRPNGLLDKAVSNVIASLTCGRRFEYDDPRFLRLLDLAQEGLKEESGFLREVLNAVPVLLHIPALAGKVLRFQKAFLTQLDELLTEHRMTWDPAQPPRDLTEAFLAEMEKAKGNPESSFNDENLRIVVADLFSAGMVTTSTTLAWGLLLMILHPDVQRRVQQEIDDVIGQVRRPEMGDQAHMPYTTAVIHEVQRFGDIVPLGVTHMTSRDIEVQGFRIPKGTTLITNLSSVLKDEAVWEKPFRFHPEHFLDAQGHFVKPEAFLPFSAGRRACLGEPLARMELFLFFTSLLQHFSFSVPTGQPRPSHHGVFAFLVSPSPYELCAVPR
Sequence of human dopamine transporter (Q01959 whole entry): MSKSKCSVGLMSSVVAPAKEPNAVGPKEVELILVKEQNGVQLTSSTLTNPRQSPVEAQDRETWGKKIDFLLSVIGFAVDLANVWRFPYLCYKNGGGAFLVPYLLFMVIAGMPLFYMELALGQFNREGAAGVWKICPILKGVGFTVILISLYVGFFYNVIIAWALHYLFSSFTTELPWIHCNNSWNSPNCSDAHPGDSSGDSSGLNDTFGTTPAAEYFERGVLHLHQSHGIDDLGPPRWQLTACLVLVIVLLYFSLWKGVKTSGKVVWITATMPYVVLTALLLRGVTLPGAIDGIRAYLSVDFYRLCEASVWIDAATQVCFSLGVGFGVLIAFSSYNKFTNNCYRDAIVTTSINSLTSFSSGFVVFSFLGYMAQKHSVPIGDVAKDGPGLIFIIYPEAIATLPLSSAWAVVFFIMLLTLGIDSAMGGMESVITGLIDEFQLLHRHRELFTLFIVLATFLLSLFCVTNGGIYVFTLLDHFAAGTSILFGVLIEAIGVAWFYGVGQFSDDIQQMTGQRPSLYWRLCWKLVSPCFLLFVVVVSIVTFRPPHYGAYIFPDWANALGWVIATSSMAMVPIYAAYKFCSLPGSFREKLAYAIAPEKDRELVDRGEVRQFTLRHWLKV
Sequence of human norepinephrine transporter (P23975 whole entry): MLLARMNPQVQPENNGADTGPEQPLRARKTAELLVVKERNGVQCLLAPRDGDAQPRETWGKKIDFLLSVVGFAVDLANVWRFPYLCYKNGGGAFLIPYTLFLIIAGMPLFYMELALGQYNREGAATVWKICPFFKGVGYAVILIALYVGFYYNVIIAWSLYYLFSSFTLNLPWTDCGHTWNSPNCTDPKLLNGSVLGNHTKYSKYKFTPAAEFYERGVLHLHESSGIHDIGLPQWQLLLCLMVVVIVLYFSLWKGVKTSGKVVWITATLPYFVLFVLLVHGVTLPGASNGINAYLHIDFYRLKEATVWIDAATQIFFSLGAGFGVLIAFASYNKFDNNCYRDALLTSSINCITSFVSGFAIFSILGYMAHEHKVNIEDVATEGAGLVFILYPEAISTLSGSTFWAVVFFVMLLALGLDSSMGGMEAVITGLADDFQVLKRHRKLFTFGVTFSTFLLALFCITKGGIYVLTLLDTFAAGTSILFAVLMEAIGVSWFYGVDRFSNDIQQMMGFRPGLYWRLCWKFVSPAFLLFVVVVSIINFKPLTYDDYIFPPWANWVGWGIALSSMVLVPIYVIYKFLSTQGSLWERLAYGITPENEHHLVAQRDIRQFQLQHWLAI
Sequence of human serotonin transporter (P31645 whole entry): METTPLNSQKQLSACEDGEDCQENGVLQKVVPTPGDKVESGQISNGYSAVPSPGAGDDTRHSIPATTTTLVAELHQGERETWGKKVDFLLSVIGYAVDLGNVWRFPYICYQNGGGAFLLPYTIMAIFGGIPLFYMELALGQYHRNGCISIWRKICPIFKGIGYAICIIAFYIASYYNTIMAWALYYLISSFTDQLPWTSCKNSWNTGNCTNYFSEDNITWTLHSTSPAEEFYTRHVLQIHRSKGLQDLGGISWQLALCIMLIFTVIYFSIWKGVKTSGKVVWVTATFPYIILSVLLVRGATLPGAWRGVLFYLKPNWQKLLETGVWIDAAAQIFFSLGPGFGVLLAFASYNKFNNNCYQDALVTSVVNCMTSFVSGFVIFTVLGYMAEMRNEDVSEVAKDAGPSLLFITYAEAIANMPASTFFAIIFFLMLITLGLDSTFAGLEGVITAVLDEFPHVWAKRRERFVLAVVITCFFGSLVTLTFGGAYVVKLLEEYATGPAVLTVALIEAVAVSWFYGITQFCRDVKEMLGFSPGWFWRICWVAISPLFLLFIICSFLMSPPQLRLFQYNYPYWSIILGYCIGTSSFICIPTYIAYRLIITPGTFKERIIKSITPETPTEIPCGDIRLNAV

What is called pKa is the negative logarithm of the acid dissociation constant. For orientation: Ki means the equilibrium dissociation constant of an inhibitor or competing ligand from its target. What is called IC50 is the concentration at which inhibition is half-maximal. `CNC[C@H](c1ccc2ccccc2c1)[C@H](O)c1ccc(Cl)s1` (single isomer, unassigned) [Compound 58]: the pKa in series [1] (setting [7]) came to 9.7. Also, the Ki in series [2] came to 127 nM; in series [3] it was 5.9 nM; in series [4], 5.1 nM. Also, the results for the IC50 in series [5] and in series [6] were 120 nM and 9600 nM, respectively.
`CNC[C@@H](c1ccc(Cl)c(Cl)c1)[C@@H](O)c1cccc(N(C)C)c1` (single isomer, unassigned) [Compound 108]: the pKa in series [1] (setting [7]) stood at 9.5; in series [1] (setting [8]) it was 4.9. Further, the Ki in series [2] was found to be 57.1 nM; in series [3], 754 nM; in series [4], 88.5 nM. The results for the IC50 in series [5] and in series [6] were 2200 nM and at least 20000 nM, respectively.
Turning to `CNC[C@@H](c1ccc(Cl)c(Cl)c1)[C@@H](O)c1cccc([S+](C)[O-])c1` (single isomer, unassigned) [Compound 116], the pKa in series [1] (setting [7]) was 9.4. The Ki worked out at 39.7 nM in series [2], 1690 nM in series [3] and 195 nM in series [4]. Besides, the IC50 in series [5] turned out to be 15000 nM; in series [6] it was 20000 nM.
Consider `CNC[C@H](c1ccc(Cl)c(Cl)c1)[C@H](O)c1cccc(N(C)C)c1` (single isomer, unassigned) [Compound 168], for which the pKa in series [1] (setting [7]) amounted to 9.5; in series [1] (setting [8]), 4.9. Besides, the inhibition constant Ki in series [2] was 144 nM; in series [3] it was 178 nM; in series [4] it was 89.3 nM. The IC50 in series [5] worked out at 780 nM; in series [6], 4600 nM.
With `CN1CO[C@H](c2ccccc2)[C@@H](c2ccc3ccccc3c2)C1` [Compound 4], the pKa in series [1] (setting [7]) turned out to be 6.6. Moreover, the Ki stood at 10.9 nM in series [2], 2.5 nM in series [3] and 1.4 nM in series [4]. Besides, the IC50 in series [5] came out at 300 nM; in series [6] it was 20000 nM.
On to `CNC[C@H](c1ccc2ccccc2c1)[C@H](O)c1ccncc1` [Compound 12], for which the pKa in series [1] (setting [7]) was 9.6; in series [1] (setting [8]) it was 5.4. Moreover, the Ki in series [2] was 52.6 nM; in series [3] it was 2.7 nM; in series [4] it was 1.6 nM. The IC50 turned out to be 880 nM in series [5] and 20000 nM in series [6].
Turning to `CNC[C@H](c1ccc(Cl)c(Cl)c1)[C@H](O)c1cccc(N)c1` [Compound 24], the pKa in series [1] (setting [7]) turned out to be 9.4; in series [1] (setting [8]), 4.3. For the same compound, the Ki in series [2] is 21.9 nM; in series [3], 71.4 nM; in series [4], 2.2 nM. The IC50 in series [5] was 1400 nM; in series [6], 20000 nM.
As to `CNC[C@H](c1ccc2ccccc2c1)[C@H](OCCO)c1ccccc1` [Compound 32], in series [1] (setting [7]), the pKa is 9.6. Also, the Ki in series [2] was 15.8 nM; in series [3] it was 0.7 nM; in series [4] it was 2.7 nM. For the same compound, the values for the IC50 in series [5] and in series [6] were 560 nM and 20000 nM, respectively.
Take `CNC[C@H](c1ccc(OC)c(C)c1)[C@H](O)c1cccnc1` [Compound 55]: in series [1] (setting [7]), the pKa turned out to be 10. Moreover, the Ki came out at 1630 nM in series [2], 1.8 nM in series [3] and 4.6 nM in series [4]. The IC50 in series [5] amounted to 810 nM; in series [6], 20000 nM.
As to `CNC[C@H](c1ccc(Cl)c(Cl)c1)[C@@H](O)c1cccc(N)c1` [Compound 63], the pKa was determined as 9.4 in series [1] (setting [7]) and 4.3 in series [1] (setting [8]). The Ki in series [2] worked out at 78.2 nM; in series [3], 853 nM; in series [4], 6.7 nM. The IC50 came to 2800 nM in series [5] and 8300 nM in series [6].
On to `CNCC(Cc1ccccc1)c1ccc2cccnc2c1` (centres unmarked) [Compound 75], for which the pKa was 10 in series [1] (setting [7]) and 4.8 in series [1] (setting [8]). Moreover, the Ki in series [2] stood at 505 nM; in series [3] it was 2.1 nM; in series [4], 10.4 nM. The IC50 in series [5] was 560 nM; in series [6] it was 16000 nM.
On to `CNC[C@H](c1ccc(Cl)c(Cl)c1)[C@H](O)c1cccc(S(C)(=O)=O)c1` [Compound 101], for which the pKa in series [1] (setting [7]) amounted to 9.3. Further, the Ki is 73 nM in series [2], 2740 nM in series [3] and 54.4 nM in series [4]. Further, the values for the IC50 in series [5] and in series [6] were 3500 nM and 20000 nM, respectively.
As to `CNC[C@H](c1ccc(Cl)c(Cl)c1)[C@H](O)c1cccc([N+](=O)[O-])c1` [Compound 102], in series [1] (setting [7]), the pKa was 9.3. Moreover, the Ki in series [2] was found to be 29.3 nM; in series [3], 86.2 nM; in series [4], 55.2 nM. Also, the IC50 was determined as 120 nM in series [5] and 5700 nM in series [6].
Take `CNC[C@@H](c1ccc2ccccc2c1)[C@@H](O)c1cccnc1` [Compound 103]: in series [1] (first base, e.g., an aliphatic primary, secondary, or tertiary amine), the “pKa (Base 1)” value is 9.6. In addition, in series [1] (second base in the same molecule (if present)), the “pKa (Base 2)” value is 5.1. The Ki came out at 91.9 nM in series [2], 58.6 nM in series [3] and 57.6 nM in series [4]. In addition, the figures for the IC50 in series [5] and in series [6] were 11000 nM and 20000 nM, respectively.
As for `CNC[C@H](c1ccc(Cl)c(Cl)c1)[C@@H](O)c1cccnc1OC` [Compound 104], the figures for the pKa in series [1] (setting [7]) and in series [1] (setting [8]) were 9.2 and 3.2, respectively. The Ki in series [2] was 94.6 nM; in series [3], 656 nM; in series [4], 60.6 nM. Moreover, the figures for the IC50 in series [5] and in series [6] were 66 nM and 270 nM, respectively.
In the case of `CNC[C@@H](c1ccc(Cl)c(Cl)c1)[C@@H](O)c1ccsc1` [Compound 106], the pKa in series [1] (setting [7]) turned out to be 9.5. Besides, the Ki stood at 19.7 nM in series [2], 742 nM in series [3] and 80.6 nM in series [4]. The values for the IC50 in series [5] and in series [6] were 3900 nM and 20000 nM, respectively.
As to `NCC(c1ccc2ccccc2c1)C(O)c1ccc(F)cc1F` (centres unmarked) [Compound 107], the pKa in series [1] (setting [7]) amounted to 8.5. Besides, the Ki amounted to 126 nM in series [2], 727 nM in series [3] and 82.2 nM in series [4]. The IC50 in series [5] turned out to be 2400 nM; in series [6], 19000 nM.
`CNC[C@@H](c1ccc(Cl)c(Cl)c1)[C@@H](O)c1cncc(OC)c1` [Compound 109]: the results for the pKa in series [1] (setting [7]) and in series [1] (setting [8]) were 9.3 and 4.5, respectively. In addition, the results for the Ki in series [2], in series [3] and in series [4] were 66.7 nM, 646 nM and 120 nM, respectively. Besides, the IC50 in series [5] was 1100 nM; in series [6], 20000 nM.
On to `NCC[C@@H](Cc1cccnc1)c1ccc(Cl)c(Cl)c1` [Compound 112], for which the figures for the pKa in series [1] (setting [7]) and in series [1] (setting [8]) were 8.6 and 5.1, respectively. In addition, the inhibition constant (Ki) in series [2] is 273 nM; in series [3] it was 154 nM; in series [4], 148 nM. In addition, the IC50 in series [5] was determined as 2900 nM; in series [6], 18000 nM.
Regarding `CNC[C@@H](c1ccc2ccccc2c1)[C@@H](OCC(N)=O)c1ccccc1` [Compound 117], in series [1] (setting [7]), the pKa is 9.6. Further, the Ki is 12.9 nM in series [2], 796 nM in series [3] and 236 nM in series [4]. The IC50 in series [5] was found to be 5500 nM; in series [6], 20000 nM.
`CNC[C@@H](c1ccc(Cl)c(Cl)c1)[C@@H](O)c1cccc(N)c1` [Compound 119]: the pKa was 9.4 in series [1] (setting [7]) and 4.3 in series [1] (setting [8]). Moreover, the Ki in series [2] worked out at 75.5 nM; in series [3], 1780 nM; in series [4] it was 257 nM. The IC50 in series [5] stood at 4100 nM; in series [6] it was 7900 nM.
`CNC[C@@H](c1ccc(Cl)c(Cl)c1)[C@@H](O)c1cccc(SC)c1` [Compound 120]: in series [1] (setting [7]), the pKa worked out at 9.4. For the same compound, the Ki in series [2] worked out at 88.5 nM; in series [3], 662 nM; in series [4] it was 262 nM. Further, the results for the IC50 in series [5] and in series [6] were 2400 nM and 9000 nM, respectively.
